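48-hour exposure; five concentrations; linearly interpolated endpoints. The concentration for 50% growth inhibition is given as GI50.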 Active and inactive are the calls of the source. No stated cut-off is given here; in the data, active = GI50 up to about 1.1 µM and inactive = higher.
Key:
Test in all cases: NCI tumour cell line growth inhibition, 48 h
DLD-1 = tested on: DLD-1
OVCAR-4 = tested on: OVCAR-4
HCT-15 = tested on: HCT-15
SF-268 = tested on: SF-268
SK-MEL-2 = tested on: SK-MEL-2
COLO 205 = tested on: COLO 205
RXF 393 = tested on: RXF 393
HCC 2998 = tested on: HCC 2998
SN12C = tested on: SN12C
OVCAR-3 = tested on: OVCAR-3
RXF 631 = tested on: RXF 631
LXFL 529 = tested on: LXFL 529
EKVX = tested on: EKVX
UACC-257 = tested on: UACC-257
DMS-273 = tested on: DMS-273
UACC-62 = tested on: UACC-62
NCI-H522 = tested on: NCI-H522
KM12 = tested on: KM12
HT-29 = tested on: HT-29
TK-10 = tested on: TK-10
OVCAR-5 = tested on: OVCAR-5
SNB-19 = tested on: SNB-19
RPMI-8226 = tested on: RPMI-8226
A498 = tested on: A498
SF-295 = tested on: SF-295
HOP-62 = tested on: HOP-62
NCI-H460 = tested on: NCI-H460
SK-MEL-5 = tested on: SK-MEL-5
ACHN = tested on: ACHN
U-251 = tested on: U-251
A549 = tested on: A549
NCI-H23 = tested on: NCI-H23
MOLT-4 = tested on: MOLT-4
LOX IMVI = tested on: LOX IMVI
SK-MEL-28 = tested on: SK-MEL-28
XF498 = tested on: XF498
CCRF-CEM = tested on: CCRF-CEM
OVCAR-8 = tested on: OVCAR-8
CAKI-1 = tested on: CAKI-1
786-0 = tested on: 786-0
SW-620 = tested on: SW-620
Malme-3M = tested on: Malme-3M
HCT-116 = tested on: HCT-116
UO-31 = tested on: UO-31
SK-OV-3 = tested on: SK-OV-3
K562 = tested on: K562
HL-60 = tested on: HL-60
SF-539 = tested on: SF-539
DMS-114 = tested on: DMS-114
SNB-75 = tested on: SNB-75
M14 = tested on: M14
HOP-92 = tested on: HOP-92
IGROV-1 = tested on: IGROV-1
SNB-78 = tested on: SNB-78
M19-MEL = tested on: M19-MEL

With `COC(=O)CCC1(NS(=O)(=O)c2ccc(C)cc2)CCC(C(C)(C)C)CC1` (stereo not given) the GI50 (DLD-1) was 17 µM (inactive), the GI50 (OVCAR-4) was 11.2 µM (inactive) and the GI50 (HCT-15) was > 10 µM. For the same compound, the GI50 (SF-268) was > 10 µM (inactive), the GI50 (SK-MEL-2) was 17.3 µM (inactive) and the GI50 (COLO 205) was 13.4 µM (inactive). The GI50 (RXF 393) was > 10 µM (inactive), the GI50 (HCC 2998) was 14.6 µM (inactive) and the GI50 (SN12C) was 13.7 µM (inactive). The GI50 (OVCAR-3) was 10.3 µM (inactive), the GI50 (RXF 631) was 15.9 µM (inactive) and the GI50 (LXFL 529) was 15 µM (inactive). The GI50 (EKVX) was > 10 µM (inactive), the GI50 (UACC-257) was 6.95 µM (inactive) and the GI50 (DMS-273) was 12.9 µM (inactive). For the same compound, the GI50 (UACC-62) was 11.9 µM (inactive), the GI50 (NCI-H522) was 5.16 µM (inactive) and the GI50 (KM12) was 13.1 µM (inactive). For the same compound, the GI50 (HT-29) was 13.8 µM (inactive), the GI50 (TK-10) was 18 µM (inactive) and the GI50 (OVCAR-5) was 16.3 µM (inactive). The GI50 (SNB-19) was 12.2 µM (inactive), the GI50 (RPMI-8226) was 4.08 µM (inactive) and the GI50 (A498) was 13.6 µM (inactive). The GI50 (SF-295) was 11.8 µM (inactive), the GI50 (HOP-62) was 17.3 µM (inactive) and the GI50 (NCI-H460) was 31.2 µM (inactive). For the same compound, the GI50 (SK-MEL-5) was 5.62 µM (inactive), the GI50 (ACHN) was > 10 µM (inactive) and the GI50 (U-251) was 14.3 µM (inactive). For the same compound, the GI50 (A549) was 13.6 µM (inactive), the GI50 (NCI-H23) was 9.71 µM (inactive) and the GI50 (MOLT-4) was 6.15 µM (inactive). For the same compound, the GI50 (LOX IMVI) was 17.3 µM (inactive), the GI50 (SK-MEL-28) was 11.6 µM (inactive) and the GI50 (XF498) was 14.8 µM (inactive). For the same compound, the GI50 (CCRF-CEM) was 9.89 µM (inactive), the GI50 (OVCAR-8) was 14.5 µM (inactive) and the GI50 (CAKI-1) was 13.6 µM (inactive). The GI50 (786-0) was 14.4 µM (inactive), the GI50 (SW-620) was 16.7 µM (inactive) and the GI50 (Malme-3M) was 19.3 µM (inactive). The GI50 (HCT-116) was 7.74 µM (inactive), the GI50 (UO-31) was 3.3 µM (inactive) and the GI50 (SK-OV-3) was 40.6 µM (inactive). For the same compound, the GI50 (K562) was 4.91 µM (inactive), the GI50 (HL-60) was 3 µM (inactive) and the GI50 (SF-539) was 13.3 µM (inactive). For the same compound, the GI50 (DMS-114) was 4.58 µM (inactive), the GI50 (SNB-75) was 14.3 µM (inactive) and the GI50 (M14) was 12.7 µM (inactive). For the same compound, the GI50 (HOP-92) was 7.06 µM (inactive), the GI50 (IGROV-1) was 14.6 µM (inactive) and the GI50 (SNB-78) was 21.3 µM (inactive). For the same compound, the GI50 (M19-MEL) was 11.4 µM (inactive).
